The numbers were not newly measured in patent US20200396993A1, “COMPOSITIONS AND METHODS FOR RELEASE OF CYCLOPROPENES” (Hazel Technologies, Inc., priority 2017, published 2020), which cites them from elsewhere.

The term solubility denotes the concentration that dissolves in the medium under given conditions.

≈ marks a conversion by molar mass, not a printed value.

The conditions of this data set: in water.

For `CC1=CC1` [Sample 1-MCP, 1-methylcyclopropene], the solubility is 137 µg/mL (≈ 2530 µM).
